Tests used:
WT CBL-B (36-427) = biological target: T1, WT CBL-B (36-427) (Homo sapiens, UniProt Q13191); experiment: Surface Plasmon Resonance (SPR) assay, binding affinity and kinetics, CBL-B; conditions: SPR at 10° C., biotinylated WT CBL-B (36-427) on streptavidin chip; geometric mean; read-out: CBL-B SPR Kd (nM) GMean
T1 construct: N-terminal biotinylated WT CBL-B (36-427) and C-CBL (46-435) were captured on a streptavidin (SA) coated sensor chip
Method in brief: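 Biotinylated WT CBL-B (36-427) or C-CBL (46-435) captured on streptavidin chip (~5000–6000 RU); binding at 10° C in HEPES buffer pH 7.2 with 2% DMSO. Multi-cycle: 2-fold, 10-point series from 10 or 100 μM, 90 s association. Single-cycle: 3-fold, 6-point, 0.001–1 μM, 120 s association, >5400 s dissociation.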

C-CBL (residues 46-435) = biological target: T2, C-CBL (residues 46-435) (Homo sapiens, UniProt P22681); experiment: Ligand Displacement Assay (LDA), HTRF competitive binding against BODIPY-labeled fluorescent tracer, C-CBL; conditions: geometric mean of the number of tests, read-out: C-CBL Ki (nM) GMean
T2 construct: Purified CBL-B (residues 36-427) and C-CBL (residues 46-435) proteins from baculovirus-infected insect cells; made in house; host or cells: baculovirus-infected insect cells
T2 sequence (P22681 46-435): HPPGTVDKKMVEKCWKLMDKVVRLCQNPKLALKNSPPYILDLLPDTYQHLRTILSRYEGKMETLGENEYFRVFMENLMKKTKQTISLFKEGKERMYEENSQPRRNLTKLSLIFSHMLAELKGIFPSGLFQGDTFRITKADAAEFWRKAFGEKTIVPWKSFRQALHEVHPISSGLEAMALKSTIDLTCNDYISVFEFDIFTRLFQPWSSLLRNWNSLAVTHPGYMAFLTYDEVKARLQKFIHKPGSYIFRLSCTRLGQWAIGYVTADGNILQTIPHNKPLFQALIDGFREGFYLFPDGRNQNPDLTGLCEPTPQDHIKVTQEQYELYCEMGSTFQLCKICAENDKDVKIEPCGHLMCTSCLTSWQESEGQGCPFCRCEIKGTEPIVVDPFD
Method in brief: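 Insect-cell (baculovirus) protein, N-term AviTag biotinylated via BirA, captured by SA-Tb; BODIPY tracer, KD measured per protein. 3-fold serial dilutions, duplicate, […], 2% DMSO final. Ki (nM) = geomean of runs.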

`CC(c1nc(C(F)(F)F)cc2c(-c3cccc(C4(Cc5nncn5C)COC4)c3)n[nH]c12)N1CCCCC1` (single isomer, unassigned) [Example C22, 3-(3-{3-[(4-methyl-4H-1,2,4-triazol-3-yl)methyl]oxetan-3-yl}phenyl)-7-[(1ξ)-1-(piperidin-1-yl)ethyl]-5-(trifluoromethyl)-1H-pyrazolo[3,4-c]pyridine] showed a Kd (WT CBL-B (36-427)) of 8.2 nM and a Ki (C-CBL (residues 46-435)) of 133 nM.
`C[C@H](c1nc(C(F)(F)F)cc2c(-c3cccc(C4(Cc5nncn5C)COC4)c3)n[nH]c12)N1C[C@@H](F)[C@H](F)C1` (single isomer, unassigned) [Example C26] gave a Kd (WT CBL-B (36-427)) of 13.2 nM and a Ki (C-CBL (residues 46-435)) of 198 nM.
`C[C@@H](c1nc(C(F)(F)F)cc2c(-c3cccc(C4(Cc5nncn5C)COC4)c3)n[nH]c12)N1CCC(F)(F)C1` (single isomer, unassigned) [Example D5] showed a Kd (WT CBL-B (36-427)) of 21.9 nM and a Ki (C-CBL (residues 46-435)) of 148 nM.
With `Cn1cnnc1[C@@H](c1cccc(-c2n[nH]c3c(CNC4CCCC4)nc(C(F)(F)F)cc23)c1)C1CCC1` [Example D4] the Kd (WT CBL-B (36-427)) was 2.8 nM and the Ki (C-CBL (residues 46-435)) was 54.8 nM.
Work on `CC(c1nc(C(F)(F)F)cc2c(-c3cccc(C4(Cc5nncn5C)COC4)c3)n[nH]c12)N1CCC[C@H](C)C1` (single isomer, unassigned) [Example C19] yielded a Kd (WT CBL-B (36-427)) of 2.4 nM and a Ki (C-CBL (residues 46-435)) of 61.3 nM.
For `C[C@@H](NC1CCCC1)c1nc(C(F)(F)F)cc2c(-c3cccc([C@H](c4nncn4C)C4CCC4)c3)n[nH]c12` (single isomer, unassigned) [Example C11], the Kd (WT CBL-B (36-427)) was 0.9 nM and the Ki (C-CBL (residues 46-435)) was 3.7 nM.
With `C[C@@H](NC1CCCC1)c1nc(C(F)(F)F)cc2c(-c3cccc(C4(Cc5nncn5C)COC4)c3)n[nH]c12` (single isomer, unassigned) [Example C15] the Kd (WT CBL-B (36-427)) was 5.6 nM and the Ki (C-CBL (residues 46-435)) was 42.1 nM.
`C[C@H](N[C@@H]1CCOC1)c1nc(C(F)(F)F)cc2c(-c3cccc([C@H](c4nncn4C)C4CCC4)c3)n[nH]c12` (single isomer, unassigned) [Example D2] gave a Kd (WT CBL-B (36-427)) of 3.8 nM and a Ki (C-CBL (residues 46-435)) of 77.1 nM.
In the case of `C[C@@H](NC1CCC1)c1nc(C(F)(F)F)cc2c(-c3cccc(C4(Cc5nncn5C)COC4)c3)n[nH]c12` [Example C16], the Kd (WT CBL-B (36-427)) is reported as 2 nM and the Ki (C-CBL (residues 46-435)) is reported as 49.3 nM.
In the case of `C[C@@H](N[C@@H]1CCC(F)(F)C1)c1nc(C(F)(F)F)cc2c(-c3cccc(C4(Cc5nncn5C)COC4)c3)n[nH]c12` (single isomer, unassigned) [Example C18], the Kd (WT CBL-B (36-427)) is reported as 0.7 nM and the Ki (C-CBL (residues 46-435)) is reported as 15.1 nM.
In the case of `C[C@@H]1CCCN(Cc2nc(C(F)(F)F)cc3c(-c4cccc(C5(Cc6nncn6C)COC5)c4)n[nH]c23)C1` [Example C29, 7-{[(3R)-3-methylpiperidin-1-yl]methyl}-3-(3-{3-[(4-methyl-4H-1,2,4-triazol-3-yl)methyl]oxetan-3-yl}phenyl)-5-(trifluoromethyl)-1H-pyrazolo[3,4-c]pyridine], the Kd (WT CBL-B (36-427)) is reported as 3.8 nM and the Ki (C-CBL (residues 46-435)) is reported as 46.3 nM.
`C[C@H](N[C@H]1C[C@@H](F)C1)c1nc(C(F)(F)F)cc2c(-c3cccc([C@H](c4nncn4C)C4CCC4)c3)n[nH]c12` (single isomer, unassigned) [Example C95] gave a Kd (WT CBL-B (36-427)) of 2.3 nM and a Ki (C-CBL (residues 46-435)) of 28 nM.
In the case of `C[C@@H](N[C@H]1CCC(F)(F)C1)c1nc(C(F)(F)F)cc2c(-c3cccc(C4(Cc5nncn5C)COC4)c3)n[nH]c12` (single isomer, unassigned) [Example C13], the Kd (WT CBL-B (36-427)) is reported as 2.8 nM and the Ki (C-CBL (residues 46-435)) is reported as 8 nM.
Molecule `C[C@@H](N[C@H]1CCOC1)c1nc(C(F)(F)F)cc2c(-c3cccc([C@H](c4nncn4C)C4CCC4)c3)n[nH]c12` (single isomer, unassigned) [Example C3] has a Kd (WT CBL-B (36-427)) of 5.6 nM and a Ki (C-CBL (residues 46-435)) of 52.1 nM.
In the case of `Cn1cnnc1[C@@H](c1cccc(-c2n[nH]c3c(CN[C@H]4CCC[C@@H]4O)nc(C(F)(F)F)cc23)c1)C1CCC1` [Example C4, (1S,2S)-2-({[3-{3-[(R)-cyclobutyl(4-methyl-4H-1,2,4-triazol-3-yl)methyl]phenyl}-5-(trifluoromethyl)-1H-pyrazolo[3,4-c]pyridin-7-yl]methyl}amino)cyclopentan-1-ol], the Kd (WT CBL-B (36-427)) is reported as 2.1 nM and the Ki (C-CBL (residues 46-435)) is reported as 47.4 nM.

Reference: patent US20260125375A1 (Pfizer Inc., priority 2022, published 2026)
